Laboratory results reported in the supplement of paper PMC10307832.

Experiments:
Assay in all cases: relative viability (nuclei count vs DMSO), 5 days (fraction); higher = more cells survive
Sulindac + Alpelisib = compound: CC1=C(CC(=O)O)c2cc(F)ccc2/C1=C\c1ccc([S+](C)[O-])cc1 [Sulindac] + Cc1nc(NC(=O)N2CCC[C@H]2C(N)=O)sc1-c1ccnc(C(C)(C)C(F)(F)F)c1 [Alpelisib] (partner 2 µM)
Outline: (§1)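 Values are medians from duplicate plates. Each reflects relative viability, defined as the nuclei count of treated wells over that of vehicle wells. Lung cancer cell lines in 1536-well plates were pin-tool dosed one day after seeding with one drug alone or with a fixed anchor-drug dose plus five library-drug doses (not always all listed) in √10 steps, then fixed, stained and imaged at 4× after 5 days.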

Sulindac + Navitoclax = compound: CC1=C(CC(=O)O)c2cc(F)ccc2/C1=C\c1ccc([S+](C)[O-])cc1 [Sulindac] + CC1(C)CCC(c2ccc(Cl)cc2)=C(CN2CCN(c3ccc(C(=O)NS(=O)(=O)c4ccc(N[C@H](CCN5CCOCC5)CSc5ccccc5)c(S(=O)(=O)C(F)(F)F)c4)cc3)CC2)C1 [Navitoclax] (partner 0.5 µM)
Outline: as §1

[1] = compound: CN[C@@H]1C[C@H]2O[C@@](C)([C@@H]1OC)n1c3ccccc3c3c4c(c5c6ccccc6n2c5c31)C(=O)NC4 [Staurosporine] + CC(=O)Nc1cccc(-n2c(=O)n(C3CC3)c(=O)c3c(Nc4ccc(I)cc4F)n(C)c(=O)c(C)c32)c1 [Trametinib] (partner 0.02 µM)
Outline: as §1

Staurosporine + Olaparib = compound: CN[C@@H]1C[C@H]2O[C@@](C)([C@@H]1OC)n1c3ccccc3c3c4c(c5c6ccccc6n2c5c31)C(=O)NC4 [Staurosporine] + O=C(c1cc(Cc2n[nH]c(=O)c3ccccc23)ccc1F)N1CCN(C(=O)C2CC2)CC1 [Olaparib] (partner 8 µM)
Outline: as §1

Cell Line	relative viability (Sulindac + Alpelisib; first compound 0.08 µM)	relative viability (Sulindac + Alpelisib; first compound 0.253 µM)	relative viability (Sulindac + Alpelisib; first compound 0.8 µM)	relative viability (Sulindac + Alpelisib; first compound 2.53 µM)	relative viability (Sulindac + Alpelisib; first compound 8 µM)	relative viability (Sulindac + Navitoclax; first compound 0.08 µM)	relative viability (Sulindac + Navitoclax; first compound 0.253 µM)	relative viability (Sulindac + Navitoclax; first compound 2.53 µM)	relative viability (Sulindac + Navitoclax; first compound 8 µM)	relative viability ([1]; first compound 0.005 µM)	relative viability ([1]; first compound 0.01581 µM)	relative viability ([1]; first compound 0.05 µM)	relative viability ([1]; first compound 0.1581 µM)	relative viability ([1]; first compound 0.5 µM)	relative viability (Staurosporine + Olaparib; first compound 0.005 µM)	relative viability (Staurosporine + Olaparib; first compound 0.01581 µM)	relative viability (Staurosporine + Olaparib; first compound 0.05 µM)	relative viability (Staurosporine + Olaparib; first compound 0.1581 µM)	relative viability (Staurosporine + Olaparib; first compound 0.5 µM)	relative viability (Sulindac + Navitoclax; first compound 0.8 µM)
HOP-62	1.15	0.994	0.842	0.963	1.21	0.982	1.37	1.21	1.22	0.359	0.196	0.184	0.141	0.102	0.441	0.157	0.0992	0.143	0.104	
LC-2-ad	0.886	0.913	0.86	0.917	0.974	0.384	0.495	0.434	0.564	0.945	0.732	0.559	0.165	0.122	0.684	0.546	0.483	0.154	0.0646	0.548
LCLC-97TM1	0.272	0.278	0.238		0.236	0.566	0.397		0.351	0.168	0.115	0.103	0.0977	0.0977	0.42	0.12	0.194	0.236	0.191	0.386
LK-2	1.42	1.14			1.38	1.03	0.91	0.768	0.891	0.906	0.781	0.701	0.669	0.333		0.432	0.518	0.289	0.0843	0.722
LOU-NH91	0.711	0.7	0.636	0.745	0.808	0.726	0.772	0.638	0.748	0.673	0.493	0.511	0.341	0.303	0.816	0.577	0.572	0.344	0.246	0.552
LU99A	0.468	0.564	0.455	0.498	0.596	0.964	0.781	0.73	0.878	0.461	0.243	0.23	0.182	0.133	0.228	0.164	0.141	0.138	0.121	0.689
LXF-289	1.1	1.05	1.02	1.13	1.06	1	0.97	0.999	0.965	0.741	0.409	0.412	0.274	0.237	1.1	0.193	0.395	0.164	0.227	0.953
NCI-H23	0.763	0.78	0.636	0.658	0.859	0.809	0.84	0.84	0.923	0.315	0.165	0.172	0.0936	0.119	0.232	0.138	0.183	0.135	0.102	0.785
NCI-H322M	0.644	0.777	0.652	0.848	0.928	1.28	1.37	1.27	1.29	0.518	0.418	0.342	0.45	0.432	0.831	0.691	0.556	0.411	0.345	1.08
NCI-H441	0.724	0.713	0.642	0.888	0.917	0.395	0.588	0.478	0.822	0.373	0.186	0.168	0.133	0.0933	0.352	0.319	0.205	0.176	0.115	0.519
NCI-H460	0.82	0.492		0.477	0.709	1.88	1.44	1.07	1.3	0.0592	0.0305	0.0206	0.0114	0.0063	0.27	0.134	0.159	0.0506	0.0242	
NCI-H520	0.965	0.839	0.894	0.873	1.17	1.33	1.17	1.04	1.44	0.708	0.536	0.303	0.16	0.112	0.347	0.302	0.211	0.138	0.139	1.03
NCI-H596	0.554	0.532	0.551	0.478	0.485	0.901	0.953	1.02	1.13	0.753	0.494	0.275	0.184	0.173	0.854	0.542	0.302	0.25	0.297	0.812
NCI-H647	1.43	1.27	0.718	1.15	1.23	1.48	1.26	1.04	1.53	0.295	0.151	0.0868	0.0601	0.0349	0.275	0.199	0.0866	0.0394	0.0357	0.991
NCI-H727	0.687	0.537	0.591	0.579	0.771	0.32	0.385	0.416	0.433	0.349	0.346	0.316	0.267	0.257	0.638	0.422	0.413	0.434	0.419	0.381
NCI-H838	1.22	0.983	0.769	0.975	1.08	1.33	1.19	1.18	1.39	0.174	0.145	0.208	0.0937	0.0589	0.24	0.175	0.154	0.122	0.0873	1.1

Cell Line	relative viability (Sulindac + Alpelisib; first compound 0.08 µM)	relative viability (Sulindac + Alpelisib; first compound 0.253 µM)	relative viability (Sulindac + Alpelisib; first compound 0.8 µM)	relative viability (Sulindac + Alpelisib; first compound 2.53 µM)	relative viability (Sulindac + Alpelisib; first compound 8 µM)	relative viability (Sulindac + Navitoclax; first compound 0.08 µM)	relative viability (Sulindac + Navitoclax; first compound 0.253 µM)	relative viability (Sulindac + Navitoclax; first compound 2.53 µM)	relative viability (Sulindac + Navitoclax; first compound 8 µM)	relative viability ([1]; first compound 0.005 µM)	relative viability ([1]; first compound 0.01581 µM)	relative viability ([1]; first compound 0.05 µM)	relative viability ([1]; first compound 0.1581 µM)	relative viability ([1]; first compound 0.5 µM)	relative viability (Staurosporine + Olaparib; first compound 0.005 µM)	relative viability (Staurosporine + Olaparib; first compound 0.01581 µM)	relative viability (Staurosporine + Olaparib; first compound 0.05 µM)	relative viability (Staurosporine + Olaparib; first compound 0.1581 µM)	relative viability (Staurosporine + Olaparib; first compound 0.5 µM)	relative viability (Sulindac + Navitoclax; first compound 0.8 µM)
NCI-H1355	0.912	0.945	0.784	0.842	0.854	1.03	0.989	0.961	0.914	0.279	0.255	0.232	0.22	0.147	0.751	0.289	0.253	0.185	0.173	0.806
NCI-H1395	0.948	1.05	0.975	0.973	1.08	1.2	1.17	1.19	1.2	0.98	0.77	0.476	0.305	0.261	0.443	0.395	0.379	0.328	0.274	1.1
NCI-H1437	1.25	0.905	0.733	0.946	1.17	1.28	1.1	1.1	1.38	0.342	0.244	0.26	0.21	0.124	0.506	0.456	0.401	0.168	0.106	1.05
NCI-H1651	1.2	1.1	0.874	0.911	1.3	1.29	1.3	1.22	1.38	0.871	0.785	0.569	0.509	0.346	0.153	0.159	0.168	0.15	0.126	0.544
NCI-H1666		1.09	0.808	0.866	0.99		0.963	0.853	1.19	0.785	0.573	0.635	0.513	0.456	0.682	0.567	0.583	0.476	0.432	0.793
NCI-H1734	0.712	0.696	0.64	0.693	0.805	0.785	1.03	0.987	1.12	0.715	0.387	0.165	0.119	0.101	0.566	0.354	0.257	0.194	0.0713	0.594
NCI-H1755	1.17	1.06	0.874	0.935	1	1.17	1.09	1.08	1.13	0.663	0.479	0.263	0.212	0.193	0.731	0.421	0.25	0.236	0.234	0.821
NCI-H1792	0.959	0.717		0.726	0.866	0.796	0.682	0.681	0.691	0.374	0.263	0.164	0.0813	0.0466	0.147	0.0705	0.0822	0.097	0.0652	
NCI-H1793	0.744	0.78	0.587	0.857	0.804	0.341	0.396	0.458	0.473	0.472		0.359	0.168	0.169	0.815		0.3	0.15	0.14	0.364
NCI-H1915	1.05	1.11	0.999	1.04	1.12	0.873	0.808	0.742	0.832	0.252	0.139	0.0978	0.0599	0.0612	0.214	0.124	0.159	0.0952	0.0708	0.78
NCI-H1944	0.745	0.883	0.754	0.853	0.856	0.958	1	1.07	1.23	0.373	0.331	0.356	0.252	0.195	0.38	0.226	0.284	0.273	0.261	1
NCI-H1975	0.73	0.757		0.674	0.694	1.26	1.24	1.21	1.25	0.18	0.141	0.139	0.121	0.1	0.306	0.225	0.165	0.107	0.104	
NCI-H1993	0.664	0.674	0.695	0.753	0.707	1.13	0.917	0.933	0.88	0.45	0.453	0.51	0.36	0.278	0.941	0.73	0.717	0.497	0.313	0.871
NCI-H2009	1.23	1.18	1.1	1.18	1.27	1.21	1.2	1.18	1.34	0.204	0.143	0.149	0.087	0.0761	0.532	0.248	0.0909	0.112	0.0765	1.29
NCI-H2023	0.683	0.572	0.472	0.591	0.587	1.37	0.987	0.977	1.24	0.257	0.17	0.145	0.0801	0.0607	0.265	0.192	0.117	0.0758	0.0558	0.987
NCI-H2085	1.02	0.963	0.935	1.02	0.922	1.18	1.21	1.18	1.14	0.313	0.208	0.293	0.215	0.197	0.694	0.471	0.556	0.398	0.344	0.979
